# Data taken from PubChem BioAssay AID2305 (GlaxoSmithKline (GSK), 2010).
# System: P. falciparum 3D7 growth, pLDH absorbance
# Assay: P. falciparum 3D7 growth inhibition, dose response, strain 3D7 (AID 2305)
row,SMILES,IC50 [nM]
1,Cc1ccc(C)c(N2CCN(Cc3ccccc3O)CC2)c1,940
2,CCCC/C=C(\Cl)c1ccc(O)c2c1C[C@H]1C[C@H]3[C@H](N(C)C)C(=O)C(C(N)=O)=C(O)[C@@]3(O)C(=O)C1=C2O,1090
3,N#Cc1ccc(N(CCOc2ccc(Cl)cc2)Cc2ccccc2C(F)(F)F)cc1C(F)(F)F,660
4,COc1ccc(-c2cccc(NC(=O)c3ccc(C#N)cc3)c2)cc1CN1CCCN(C)CC1,760
5,O=c1cc(NCCCNCc2cc3ccc(Br)cc3s2)[nH]c2ccccc12,990
6,CCCCN1CCN(c2cc(NS(=O)(=O)c3cccc(C(=O)Nc4ccc(C(F)(F)F)cc4)c3)ccc2OC)CC1,690
7,COc1cc2nc(NCCn3ccnc3C)nc(NCCc3ccccc3)c2cc1OC,730
8,CCc1c(CCNCCCCCCNCCc2ccc(OC)cc2)ccc(OC)c1OC,870
9,COc1cc2ccccc2c(CON2C(N)=NC(N)=NC2(C)C)c1OC,50
10,COc1cccc(C2CCN(CCCCNC(=O)c3ccc(NC(=O)c4ccc(Cl)cc4)cc3)CC2)c1,960
11,CCOC(=O)c1ccc(OCCCCCCOc2ccc(Br)cc2)cc1,780
12,O=S(=O)(NCCN1CCCC1)c1ccc(-c2cccc(CNCCc3cccs3)c2)s1,700
13,Oc1ccccc1Nc1nc(NCc2ccco2)c2ccccc2n1,640
14,Cc1cc(N[C@@H](Cc2ccccc2)C(=O)NCc2cccs2)nc(NCC2CCCCC2)n1,990
15,CC(CN=C(N)c1cccc(C(N)=NCC(C)Oc2cccc(C3CCCCC3)c2)n1)Oc1cccc(C2CCCCC2)c1 (configuration not stated),920
16,FC(F)(F)c1ccc2nc(-c3ccc(-c4cccc(CN5CCN(CCN6CCOCC6)CC5)c4)cc3)[nH]c2c1,160
17,Cc1cc(CNC(=O)c2ccc(-c3ccc(-c4nc5ccc(C(F)(F)F)cc5[nH]4)s3)cc2)on1,730
18,N/C(=N/C(=NCCCCCCN=C(/N=C(/N)Nc1ccc(Cl)cc1)N1CCCCC1)N1CCCCC1)Nc1ccc(Cl)cc1,260
19,C[C@H](Cc1ccc(OCCCCCCOc2ccccc2)cc1)NC[C@@H](O)c1cc(Br)no1,880
20,COc1cc(NC(=O)/C=C/c2ccccc2OC(F)(F)F)cc(OCCN2CCN(CCN3CCOCC3)CC2)c1,160
21,CCC(C(=O)Nc1ccccc1)n1nc(-c2ccc(C)c(S(=O)(=O)N3CCCCC3)c2)ccc1=O (configuration not stated),1090
22,CCN1CCN(C(=O)NC(C(=O)N2CCCC(COc3ccc(Cc4ccccc4)cc3)C2)c2cccs2)C(=O)C1=O (configuration not stated),480
23,CCCNC[C@@H](O)[C@H](Cc1ccccc1)NC(=O)c1cc2c3c(c1)c(CC)cn3CCS(=O)(=O)N2C,100

row,SMILES,IC50 [nM]
1,FC(F)(F)c1ccc2nc(-c3cccc(-c4cccc(CNCCc5ccncc5)c4)c3)[nH]c2c1,140
2,COc1ccc(CNCc2cccc(-c3cccc(-c4nc5ccc(C(F)(F)F)cc5[nH]4)c3)c2)cc1,200
3,O=C(Nc1ccc2oc(-c3ccc(Cl)cc3Cl)nc2c1)c1ccc([N+](=O)[O-])o1,1100
4,COc1ccc(C=NNc2cc(C)nc3c(C)cccc23)c2ccccc12,220
5,CC(C)(C)c1ccc(C(=O)N2CCC3(CC2)C(=O)N(CC(=O)NCC2CCCO2)CN3c2ccccc2)cc1 (configuration not stated),230
6,COc1ccc(Nc2nc(NCc3ccc(-n4ccnc4)cc3)cc(-c3ccc(OC)cc3)n2)cc1,830
7,COc1ccc(S(=O)(=O)NC2CCN(c3cc(C)nc(Nc4cccc(C#N)c4)n3)CC2)cc1,950
8,CCN(CC)C(C)(C)CN(Cc1ccc(-c2ccc(C(F)(F)F)cc2)cc1)C(=O)Cn1c(CCc2cccc(F)c2F)nc(=O)c2ccccc21,960
9,COc1ccc2nccc([C@@H](O)CN3CCC(NCc4cc5ccccc5o4)CC3)c2c1,660
10,CNc1ccc(CNCc2cccc(-c3ccc(-c4nc5ccccc5[nH]4)s3)c2)cc1,730
11,Cc1cccc2[nH]c(-c3ccc(-c4cccc(NC(=O)Nc5ccccc5)c4)cc3)nc12,720
12,COc1ccc2ncc(F)c(CCN3CCC(NCc4cc(OC)c5c(c4)OCCO5)CC3)c2n1,570
13,O=C(NCCCCN1CCC(c2ccc(-c3ccco3)cc2)CC1)c1ccc(NC(=O)c2ccc(Cl)cc2)cc1,540
14,CCc1ccc(-n2cc(C(=O)c3cc(Br)ccc3O)cc(C#N)c2=O)cc1,800
15,NC1CCN(CCc2ccc(NS(=O)(=O)c3ccc(-c4ccccc4)cc3)cc2)CC1,1020
16,COc1ccc(CC(C)NCC(O)c2cccc(C(F)(F)F)c2)cc1F (configuration not stated),830
17,N[C@@H](Cc1ccc(O)cc1)C(=O)NC(c1ccccc1)c1c(O)ccc2ccccc12 (some centres not stated),690
18,CSc1nc2nc(C)c(Cc3cccc(F)c3)c(C)n2n1,900
19,CS(=O)(=O)NCCCNCc1cccc(-c2cccc(-c3nc4ccc(F)cc4[nH]3)c2)c1,940
20,COc1cc(NC(=O)c2cccc([N+](=O)[O-])c2)cc(S(=O)(=O)c2ccc(Cl)cc2)c1,1130
21,O=C(Nc1cccc(-c2cccc(F)c2)c1)C1CCN(Cc2ccc(O)cc2)CC1,1730
22,CCC[C@@H]([C@@H](CC1CCCCC1)C(=O)N[C@H](C(=O)Nc1nccs1)C(C)(C)SCCOCCOCC)N(O)C=O,80
23,O=C(Nc1ccc([N+](=O)[O-])cc1)Nc1cc(OCC(F)(F)F)cc(OCC(F)(F)F)c1,470

row,SMILES,IC50 [nM]
1,COc1ccccc1C1CCN(C2CCC(NC(=O)/C=C/c3cccc(Cl)c3)CC2)CC1 (configuration not stated),1030
2,O=C(Nc1cc(F)cc(F)c1)NC1CCN(CCCCCNC(=O)[C@@H]2C[C@H]2c2ccc(Cl)c(Cl)c2)CC1,750
3,Cc1cc(Cl)c(S(=O)(=O)N(C)c2ccccc2)cc1OCC(=O)NC1CCCCC1,300
4,O=C(N[C@H]1CCN(Cc2ccc(OCCN3CCCC3)c(Cl)c2)C1)c1ccc(Cl)c(Cl)c1,920
5,COc1ccc(-c2cccc(NC(=O)c3ccc(Cl)cc3)c2)cc1CN1CCNCC1,840
6,Fc1ccc2nc(-c3cccc(-c4ccc(CNCCN5CCNCC5)cc4)c3)[nH]c2c1,900
7,CC(NC(=O)c1cc(-c2ccccc2)nc2c1cnn2C(C)C)C1CC1 (configuration not stated),1280
8,COc1ccc2cc(C(c3nnnn3CC3CCCO3)N3CCc4ccccc43)c(=O)[nH]c2c1 (configuration not stated),800
9,N#Cc1ccc(/C=C/C(=O)NCCCCCN2CCN(C(=O)Nc3ccc(Cl)c(C(F)(F)F)c3)CC2)cc1,780
10,COc1ccccc1N1CCN(Cc2c(O)ccc3cc(Br)ccc23)CC1,1150
11,COc1ccc(NC(=O)Nc2ccc(C)c(-c3ccc(C(=O)Nc4ccncc4)cc3)c2)cc1,570
12,COc1ccc2ccc(F)c(CC(=O)N3CCOC(CNCc4cccc(-c5ccsc5)n4)C3)c2n1 (configuration not stated),1170
13,O=C(Nc1cccc(-c2nn3ccccc3c2-c2ccnc(Nc3ccccc3)n2)c1)c1cc(F)ccc1F,950
14,N#Cc1ccc2nc(-c3cc(-c4cccc(F)c4)cnc3N)[nH]c2c1,190
15,CCC(C)CN1CCC(N(C)c2cc(NC(=O)c3cccc(C)c3)ccn2)CC1 (configuration not stated),940
16,Cc1cc2[nH]c(-c3ccc(C(=O)NCCCN4CCN(c5cccc(Cl)c5)CC4)s3)nc2cc1Cl,650
17,CC(Cc1ccc(OCc2ccccc2)c(Cl)c1)NCC(O)c1cccc(C(F)(F)F)c1 (configuration not stated),940
18,CN1CCN(Cc2cccc(-c3cc4nccc(Nc5ccc(Oc6ccccc6)cc5)c4cc3Cl)c2)CC1,730
19,Cn1nc(-c2ccc(CN[C@@H]3CCc4ccc(O)cc43)cc2)c2cnc(NCCCN3CCCC3)nc21,800
20,Cc1cc(NC(=O)Nc2ccc(I)c(OCCN(C)C)c2)ccc1Br,620
21,COc1ccc2nccc([C@@H](O)CN3CCC(NS(=O)(=O)c4cc5c(cc4Cl)SCC(=O)N5)CC3)c2c1,980
